# Laboratory results as given in patent US20090270479A1, “Genetic and Epigenetic Alterations In the Diagnosis and Treatment of Cancer” (priority 2005, published 2009).
# T1: p107 (human, UniProt P28749 1-1068)
# T1 sequence (looked up): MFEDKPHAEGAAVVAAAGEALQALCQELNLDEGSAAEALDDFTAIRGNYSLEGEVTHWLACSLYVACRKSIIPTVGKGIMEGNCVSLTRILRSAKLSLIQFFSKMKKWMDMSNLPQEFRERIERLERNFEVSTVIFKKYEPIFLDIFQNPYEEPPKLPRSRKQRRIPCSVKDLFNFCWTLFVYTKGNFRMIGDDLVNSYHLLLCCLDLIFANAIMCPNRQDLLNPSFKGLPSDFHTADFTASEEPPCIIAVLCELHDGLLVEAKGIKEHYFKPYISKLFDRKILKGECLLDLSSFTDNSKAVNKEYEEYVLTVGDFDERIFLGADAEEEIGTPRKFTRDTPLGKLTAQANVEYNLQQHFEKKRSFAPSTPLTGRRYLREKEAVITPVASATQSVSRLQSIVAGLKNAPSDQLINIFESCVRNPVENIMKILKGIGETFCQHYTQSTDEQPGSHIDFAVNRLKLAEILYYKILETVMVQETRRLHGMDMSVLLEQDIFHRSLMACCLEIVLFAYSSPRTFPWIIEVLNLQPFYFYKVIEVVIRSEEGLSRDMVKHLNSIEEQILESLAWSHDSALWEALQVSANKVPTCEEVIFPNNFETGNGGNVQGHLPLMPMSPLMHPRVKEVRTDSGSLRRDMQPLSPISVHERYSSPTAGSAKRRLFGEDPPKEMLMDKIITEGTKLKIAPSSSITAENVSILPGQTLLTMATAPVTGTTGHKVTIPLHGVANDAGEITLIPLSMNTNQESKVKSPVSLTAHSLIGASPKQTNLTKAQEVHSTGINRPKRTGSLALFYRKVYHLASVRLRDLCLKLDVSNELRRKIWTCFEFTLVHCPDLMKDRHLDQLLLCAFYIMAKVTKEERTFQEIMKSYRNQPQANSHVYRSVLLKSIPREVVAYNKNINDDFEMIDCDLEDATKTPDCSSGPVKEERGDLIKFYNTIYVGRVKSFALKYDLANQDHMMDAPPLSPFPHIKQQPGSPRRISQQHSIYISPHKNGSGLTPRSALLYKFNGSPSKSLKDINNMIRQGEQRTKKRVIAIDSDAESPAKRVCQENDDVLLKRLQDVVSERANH
# Legend:
# Weri-Rb1 cells [1] = assay: Cell viability (MTT) / proliferation of Weri-Rb1 cells; format: cell-based, human; conditions: 2.5 μM, after 96 h of treatment, vs untreated
# Experimental: (§1) Weri-Rb1 cell line and 5-Aza-2-dc DNA methyltransferase inhibitor treatment—Human retinoblastoma cell line (Weri-Rb1 ) obtained from the American Type Culture Collection (ATCC, Manassas, Va., USA) was cultured in RPMI 1640 supplemented with 10% FCS at spin ratio of 1:2 once a week. A volume of […] of 5-Aza-2-dc, a DNA methyltransferase inhibitor (Sigma-Aldrich, St. Louis, Mo., USA) was added to medium culture of treated cells.
# (§2) Cell viability (MTT) and FACS analysis—Quantitative cell viability was measured by colorimetric assay using a cell proliferation kit (MTT) (Roche Molecular Biochemicals, Mannheim, Germany). A total of 5000 cells/well Weri-Rb1 and 5-Aza-2-dc-treated Weri-Rb1 were grown in microtiter plates (96-well) in a final volume of 100 μl culture medium. The incubation period of cell culture was 24, 48 and 96 h in the presence or absence of the 2.5 μM DNA methyltransferase inhibitor. After incubation period, 10 μl MTT labeling reagent was added to each well to a final concentration […]. MTT is cleaved by growing cells to form formazan crystals which allows quantification of cell viability by spectrdphotometric analysis (ELISA) at 550 nm. Cell viability was expressed as the percentage of the absorbance of drug-treated and untreated cells relative to that of the untreated cells of 0 h. […]
# Weri-Rb1 cells [2] = assay: FACS analysis of 5-Aza-2-dc treated Weri-Rb1 cells; format: cell-based, human; conditions: 2.5 μM
# Experimental: as §1, §2
# [3] = test system: pRb2/p130 expression in Weri-Rb1 cells; assay: Western blot of pRb2/p130 in treated Weri-Rb1 cells; format: cell-based, human; conditions: Weri-Rb1 whole cell lysates, treated 24-96 h, vs untreated control after 96 h culture
# Experimental: as §1
# Western blotting—Western blot analysis of pRb/p105 and pRb2/p130 was performed on three fresh samples of primary tumors (samples 8-10). Weri-Rb1 cells and one normal retina sample, obtained from a patient who underwent enucleation for painful absolute glaucoma, served as an experimental control. Fresh tissues were immediately frozen in liquid nitrogen. Furthermore, Weri-Rb1 cells treated and untreated with 5-Aza-2-dc at various times were processed for Western blot analysis. Whole tissues lysates were prepared by resuspending homogenized tissues and pelleted cells in lysis buffer (50 mM Tris/HCl, 5 mM EDTA, 250 mM NaCl, 50 mM NaF, 0.1% Triton X-100, 0.1 mM Na3VO4 plus fresh inhibitors). Equal amounts of 100 μg of total extracts were loaded and resolved on a 7 or 10% SDS-PAGE. The gels were then transferred onto a nitrocellulose filter and checked by using 0.1% Ponceau red. […]
# [4] = test system: RB2/p130 mRNA in H23 cells; assay: Multiplex RT-PCR of RB2/p130 mRNA in treated H23 cells; format: cell-based, human; conditions: 2.5 μM, beginning at 48 hours after treatment, vs basal level
# Experimental: (§3) Cell cultures and treatment—Cell lines were purchased from the American Type Culture Collection (Rockville, Md.). The cells were cultured in DMEM or RPMI1640 medium supplemented with 10% fetal bovine serum and 2 mM L-glutamine. For treatment, cells were seeded at a density of 5×10^5 cells/100-mm tissue culture dish. 2.5 μM of DNA methyltransferase inhibitor (5-AZA-2-deoxicytidine) was added to the culture medium for up 96 hours.
# Multiplex RT-PCR—Multiplex RT-PCR analysis was carried out with 0.2 μg of total RNA from treated and untreated H23 cells. PCR was performed using RB2/p130 primers and β-actin specific primers (SuperScript RT-PCR System, Invitrogen).
# [5] = test system: pRb2/p130 protein in H23 cells; assay: Western blot of pRb2/p130 in treated H23 cells; format: cell-based, human; conditions: 2.5 μM, observed at 72 hours, maximum at 96 hours
# Experimental: as §3
# Western blot analysis of pRb2/p130 was performed using total protein lysates from untreated and 5-AZA-2-deoxicytidine treated H23 cells. Whole cell lysates were prepared in lysis buffer (50 mM Tris/HCl, 5 mM EDTA, 250 mM NaCl, 50 mM NaF, 0.1% Triton-X, 0.1 mM Na3VO4 plus fresh inhibitors). Equal amounts of 100 μg of total extracts were loaded and resolved on a 7% SDS-PAGE. The gels were then transferred onto a nitrocellulose filter and checked by using 0.1% Ponceau red. The monoclonal anti-pRb2/p130 (Transduction Laboratories, Ky., USA) was used at a dilution of 1:800.
# p107 = target: T1, p107; assay: co-immunoprecipitation with anti-PAI-2 antibody from nuclear and cytoplasmic lysates of primary human corneal and conjunctival epithelial cells, Western blot with anti-p107
# Source text: Western blot and chromatin immuoprecipitation assay—Cytoplasmic and nuclear proteins were extracted from 12 couples of paired normal human corneal and conjunctival epithelial cells by using the PARIS kit (Ambion) according to the manufacturer's instructions. Efficient cytoplasmic and nuclear fractionation was confirmed by Western blotting analysis using anti-GAPDH antibody for the cytoplasmic fraction and anti Oct-1 antibody for the nuclear fraction. Immunoprecipitation experiments were performed using the cytoplasmic and nuclear fractions with PAI-2 as immunoprecipitating antibody (N-18, Santa Cruz Biotechnology, Calif.). The presence of pRb2/p130, Rb1/p105 and p107 in both PAI-2 nuclear and cytoplasmic precipitates was assessed with anti-pRb2/p130, anti-Rb1/p105 and p107 antibodies (211.6, C-15 and C-18, respectively; Santa Cruz Biotechnology, Calif.) by Western blotting.
# In order to assess whether PAI-2 associated with the retinoblastoma family proteins, PAI-2 was immunoprecipitated from nuclear and cytoplasmic lysates of twelve paired couples of normal primary human corneal and conjunctival epithelial cells. The immunoprecipitates were then analyzed by Western blotting using anti-pRb2/p130, anti-Rb1/p105, anti-p107 and anti-PAI-2 antibodies. For all the cell lines analyzed, anti-PAI-2 antibody co-immunoprecitated pRb2/p130 and Rb1/p105 from both nuclear and cytoplasmic fractions. […]
# [6] = listed as 5-AZA-2-deoxycytidine
binding result (p107),Molecule,number of cells (proliferation rate) (Weri-Rb1 cells [1]),"amount of apoptotic cells (Weri-Rb1 cells [2]; 96 h, % of treated cells (control 6%)) [%]","G1 arrested cells (Weri-Rb1 cells [2]; after 24 h, % of treated cells (control 30%)) [%]",expression of endogenous pRb2/p130 [3],RB2/p130 mRNA level [4],"RB2/p130 mRNA level [4, 6]","pRb2/p130 protein level, active hypophosphorylated form [5]","pRb2/p130 protein level, active hypophosphorylated form [5, 6]"
–,"Nc1ncn([C@H]2C[C@H](O)[C@@H](CO)O2)c(=O)n1 [5-Aza-dC, 5-Aza-2-deoxycytidine]",markedly reduced,20,40,increased expression,increase,increased,increase,increased
no binding,"plasminogen activator inhibitor type-2 (other, human, UniProt P05120 1-415, looked up, Endogenous protein, immunoprecipitated with anti-PAI-2 antibody; also called PAI-2) MEDLCVANTLFALNLFKHLAKASPTQNLFLSPWSISSTMAMVYMGSRGSTEDQMAKVLQFNEVGANAVTPMTPENFTSCGFMQQIQKGSYPDAILQAQAADKIHSSFRSLSSAINASTGNYLLESVNKLFGEKSASFREEYIRLCQKYYSSEPQAVDFLECAEEARKKINSWVKTQTKGKIPNLLPEGSVDGDTRMVLVNAVYFKGKWKTPFEKKLNGLYPFRVNSAQRTPVQMMYLREKLNIGYIEDLKAQILELPYAGDVSMFLLLPDEIADVSTGLELLESEITYDKLNKWTSKDKMAEDEVEVYIPQFKLEEHYELRSILRSMGMEDAFNKGRANFSGMSERNDLFLSEVFHQAMVDVNEEGTEAAAGTGGVMTGRTGHGGPQFVADHPFLFLIMHKITNCILFFGRFSSP",–,–,–,–,–,–,–,–
